Experimental data from patent US8206762B2, “Use of Echinacea or preparations thereof in compositions for the treatment of anxiety” (priority 2006, dated 2012).
Entries after “also recorded” stand apart in the source; their conditions may differ.

Tests used:
mice = details: cited from earlier work
rats = details: cited from earlier work
humans = details: lorazepam 3×1 mg daily; buspirone 3×5 mg daily; cited from earlier work
Wistar rats = test: Elevated plus-maze test of anxiety; type: in vivo, rat; details: FIG. 2
Description: For laboratory studies, we used an ethyl alcoholic Echinacea purpurea root tincture prepared by FitoChem Ltd. (H-2200 Monor, 14 Kossuth Str, ww.fitochem.hu), on the 21st of February, 2006 (Lot number FECH-010011205; analytical ID: 052/06). The dry residue was 1.7% w/w, whereas the lead content was less than 10 μg/g. Microbiological analysis provided satisfactory results (e.g. the total plate count was less than 1000 CFU/g). The extract containing 70% ethyl alcohol was stored at room temperature (validity date under these conditions: March, 2007), and used in experiments in April-May, 2006. Before use, ethyl alcohol was evaporated in vacuum at 4° C. by means of a Speed Vac Concentrator (Savant Instruments Inc., Farmingdale, USA). […] The dose was expressed as mg dry residue/kg body weight. […]
This test was described first by Pellow et al. (1984), and later became one of the most popular anxiety tests, frequently used for the identification of putative anxiolytics. […] To avoid confounds with anxiety, the locomotor effects of compounds are evaluated based on closed arm entries (Hogg, 1996).
The elevated plus-maze (arm length 50 cm, arm width 17 cm; wall height 30 cm; platform height 80 cm) was made of dark grey painted wood, and lit by 4 white lamps of 40 W each (approximately 200 lx). […] Behaviors were scored by experimenters blind to treatment conditions by means of a computer based event recorder. […]

| SMILES | effect on anxiety in mice (mice) | time to significant effects over placebo on State-Trait Anxiety Inventory scores (humans) | treatment time to State-Trait anxiety scores lower than 45 (humans) | further results |
| --- | --- | --- | --- | --- |
| Cc1c(C(=O)NN2CCCCC2)nn(-c2ccc(Cl)cc2Cl)c1-c1ccc(I)cc1 [AM-251] | anxiogenic |  |  |  |
| Cc1c(C(=O)NN2CCCCC2)nn(-c2ccc(Cl)cc2Cl)c1-c1ccc(Cl)cc1 [SR-141716A] | anxiolytic |  |  | effect on anxiety in rats (rats): anxiogenic |
| O=C1CC2(CCCC2)CC(=O)N1CCCCN1CCN(c2ncccn2)CC1 [buspirone] |  | 3 weeks | 6 weeks |  |
| CNC1=Nc2ccc(Cl)cc2C(c2ccccc2)=[N+]([O-])C1 [chlordiazepoxide] |  |  |  | locomotor behavior (closed arm entries) / sedation (Wistar rats): highly sedative at higher doses; also recorded: significant locomotor suppression |
| O=C1Nc2ccc(Cl)cc2C(c2ccccc2Cl)=NC1O (centres unmarked) [lorazepam] |  | one week | three weeks |  |
